Paper PMC5516229 (2017)

Experiments:
[1] = tested on: G1 (DNA, G4) AGGGTTAGGGTTAGGGTTAGGG; experiment: UV/Vis titration; settings: 10 mM Tris-HCl pH 7.04, 20 μM complex, apparent, per base pair
[2] = tested on: G2T1 (DNA, G4) AGGGTTAGGGTTAGGGTTAGGGTTAGGGTTAGGGTTAGGGTTAGGG; experiment: UV/Vis titration; settings: 10 mM Tris-HCl pH 7.04, 20 μM complex, apparent, per base pair
[3] = tested on: G1 (DNA, G4) AGGGTTAGGGTTAGGGTTAGGG; experiment: CD melting, 295 nm; settings: 100 mM NaCl, 10 mM Tris-HCl pH 7.04
[4] = tested on: G2T1 (DNA, G4) AGGGTTAGGGTTAGGGTTAGGGTTAGGGTTAGGGTTAGGGTTAGGG; experiment: CD melting, 295 nm; settings: 100 mM NaCl, 10 mM Tris-HCl pH 7.04, 2.5 μM DNA
[5] = tested on: G2T2 (DNA, G4) AGGGTTAGGGTTAGGGTTAGGGTTATTAGGGTTAGGGTTAGGGTTAGGG; experiment: CD melting, 295 nm; settings: 100 mM NaCl, 10 mM Tris-HCl pH 7.04
[6] = tested on: G2T4 (DNA, G4) AGGGTTAGGGTTAGGGTTAGGGTTATTATTATTAGGGTTAGGGTTAGGGTTAGGG; experiment: CD melting, 295 nm; settings: 100 mM NaCl, 10 mM Tris-HCl pH 7.04
[7] = tested on: G2T6 (DNA, G4) AGGGTTAGGGTTAGGGTTAGGGTTATTATTATTATTATTAGGGTTAGGGTTAGGGTTAGGG; experiment: CD melting, 295 nm; settings: 100 mM NaCl, 10 mM Tris-HCl pH 7.04
[8] = tested on: G2T1 (DNA, G4) AGGGTTAGGGTTAGGGTTAGGGTTAGGGTTAGGGTTAGGGTTAGGG; experiment: native gel electrophoresis; settings: 100 mM NaCl, 10 mM Tris-HCl pH 7.04, 8 μM DNA
[9] = tested on: Ap7 (DNA, G4, 2-aminopurine at 7) AGGGTTAGGGTTAGGGTTAGGGTTAGGGTTAGGGTTAGGGTTAGGG; experiment: 2-aminopurine fluorescence quenching; settings: 100 mM NaCl; 10 mM Tris-HCl pH 7.04, 25 °C; 5 μM DNA
[10] = tested on: Ap13 (DNA, G4, 2-aminopurine at 13) AGGGTTAGGGTTAGGGTTAGGGTTAGGGTTAGGGTTAGGGTTAGGG; experiment: 2-aminopurine fluorescence quenching; settings: 100 mM NaCl; 10 mM Tris-HCl pH 7.04, 25 °C; 5 μM DNA
[11] = tested on: Ap37 (DNA, G4, 2-aminopurine at 37) AGGGTTAGGGTTAGGGTTAGGGTTAGGGTTAGGGTTAGGGTTAGGG; experiment: 2-aminopurine fluorescence quenching; settings: 100 mM NaCl; 10 mM Tris-HCl pH 7.04, 25 °C; 5 μM DNA
[12] = tested on: Ap7+Ap31 (DNA, G4, 2-aminopurine at 7 and 31) AGGGTTAGGGTTAGGGTTAGGGTTAGGGTTAGGGTTAGGGTTAGGG; experiment: 2-aminopurine fluorescence quenching; settings: 100 mM NaCl; 10 mM Tris-HCl pH 7.04, 25 °C; 5 μM DNA
[13] = tested on: Ap13+Ap37 (DNA, G4, 2-aminopurine at 13 and 37) AGGGTTAGGGTTAGGGTTAGGGTTAGGGTTAGGGTTAGGGTTAGGG; experiment: 2-aminopurine fluorescence quenching; settings: 100 mM NaCl; 10 mM Tris-HCl pH 7.04, 25 °C; 5 μM DNA
[14] = tested on: Ap31 (DNA, G4, 2-aminopurine at 31) AGGGTTAGGGTTAGGGTTAGGGTTAGGGTTAGGGTTAGGGTTAGGG; experiment: 2-aminopurine fluorescence quenching and Job's plot; settings: 100 mM NaCl; 10 mM Tris-HCl pH 7.04, 25 °C; Job's plot at 3 μM total
[15] = tested on: G1 (DNA, G4) AGGGTTAGGGTTAGGGTTAGGG; experiment: native gel electrophoresis; settings: 100 mM NaCl; 10 mM Tris-HCl pH 7.04; 16 μM DNA, 32 μM complex
[16] = 2:1 complex per G-quadruplex unit (4:1 per strand)

With `[Ni+2].[Ni+2].[O-]c1cc(OCCN2CCCCC2)ccc1C=Nc1ccc(OCCOCCOCCOCCOc2ccc(N=Cc3ccc(OCCN4CCCCC4)cc3[O-])c(N=Cc3ccc(OCCN4CCCCC4)cc3[O-])c2)cc1N=Cc1ccc(OCCN2CCCCC2)cc1[O-]` the Ka ([1]; 100 mM KCl, 370 nm) was 2.19±0.32×10^6 M^-1, the Ka ([1]; 100 mM NaCl, 370 nm) was 1.05±0.20×10^6 M^−1 and the Ka ([2]; 100 mM KCl, 370 nm) was 1.37±0.25×10^7 M^-1. For the same compound, the Ka ([2]; 100 mM NaCl, 370 nm) was 3.15±0.42×10^7 M^−1, the “Δ T m” value ([3]; complex:DNA 1:1) was 2.0 °C and the “Δ T m” value ([4]; 5 μM complex (2:1)) was 14.1 °C. For the same compound, the “Δ T m” value ([5]; complex:DNA 2:1) was 11.9 °C, the “Δ T m” value ([6]; complex:DNA 2:1) was 8.1 °C and the “Δ T m” value ([7]; complex:DNA 2:1) was 6.3 °C. The binding ([8]; 16 μM complex) was “yes”, the binding [9] was “yes” and the binding [10] was “yes”. For the same compound, the binding [11] was “yes”, the binding [12] was “yes” and the binding [13] was “yes”. The binding [14] was “yes”.
In the case of `[Ni+2].[Ni+2].[O-]c1cc(OCCN2CCCCC2)ccc1C=Nc1ccc(OCCOCCOCCOc2ccc(N=Cc3ccc(OCCN4CCCCC4)cc3[O-])c(N=Cc3ccc(OCCN4CCCCC4)cc3[O-])c2)cc1N=Cc1ccc(OCCN2CCCCC2)cc1[O-]`, the Ka ([1]; 100 mM KCl, 310 nm) is reported as 3.53±0.33×10^6 M^-1, the Ka ([1]; 100 mM NaCl, 310 nm) is reported as 8.30±0.75×10^5 M^−1 and the Ka ([2]; 100 mM KCl, 310 nm) is reported as 2.52±0.24×10^6 M^-1. The Ka ([2]; 100 mM NaCl, 310 nm) was 2.06±0.40×10^6 M^−1 and the Δ T m ([4]; 5 μM complex (2:1)) was 8.4 °C.
With `[Ni+2].[Ni+2].[O-]c1cc(OCCN2CCCCC2)ccc1C=Nc1ccc(OCCOCCOc2ccc(N=Cc3ccc(OCCN4CCCCC4)cc3[O-])c(N=Cc3ccc(OCCN4CCCCC4)cc3[O-])c2)cc1N=Cc1ccc(OCCN2CCCCC2)cc1[O-]` the Ka ([1]; 100 mM KCl, 310 nm) was 2.39±0.35×10^6 M^-1, the Ka ([1]; 100 mM NaCl, 370 nm) was 1.27±0.24×10^6 M^−1 and the Ka ([2]; 100 mM KCl, 310 nm) was 1.19±0.16×10^6 M^-1. For the same compound, the Ka ([2]; 100 mM NaCl, 310 nm) was 1.08±0.24×10^6 M^−1 and the Δ T m ([4]; 5 μM complex (2:1)) was 7.7 °C.
For `[Ni+2].[O-]c1cc(OCCN2CCCCC2)ccc1C=Nc1ccccc1N=Cc1ccc(OCCN2CCCCC2)cc1[O-]`, the Ka ([1]; 100 mM KCl, 370 nm) was 1.15±0.18×10^7 M^-1, the Ka ([1]; 100 mM NaCl, 370 nm) was 4.62±0.64×10^6 M^−1 and the Ka ([2]; 100 mM KCl, 310 nm) was 1.50±0.22×10^7 M^-1. For the same compound, the Ka ([2]; 100 mM NaCl, 310 nm) was 2.34±0.32×10^7 M^−1, the “Δ T m” value ([3]; complex:DNA 2:1) was 13.4 °C and the “Δ T m” value ([4]; 10 μM complex (4:1)) was 20.8 °C. The “Δ T m” value [5, 16] was 25.1 °C, the “Δ T m” value [6, 16] was 25.5 °C and the “Δ T m” value [7, 16] was 23.5 °C. The binding [15] was “yes” and the binding ([8]; 32 μM complex) was “yes”.
